Laboratory results published in patent US8269015B2, “4-azetidinyl-1-heteroaryl-cyclohexane antagonists of CCR2” (Janssen Pharmaceutica N.V., priority 2009, dated 2012).
Where a name gives a salt, the structure may show the parent alone.

target: T1, CCR2 (Homo sapiens, UniProt P41597); assay: MCP-1 Receptor Binding Assay in THP-1 Cells (125I labeled MCP-1); conditions: 0.5 nM 125I labeled MCP-1, 2 hours at 30° C., read-out: Inhibition of MCP-1 Binding IC50, CCR2 Binding
T1 construct: host or cells: THP-1 (human monocytic cell line)
T1 sequence (P41597 1-360 isoform P41597-2): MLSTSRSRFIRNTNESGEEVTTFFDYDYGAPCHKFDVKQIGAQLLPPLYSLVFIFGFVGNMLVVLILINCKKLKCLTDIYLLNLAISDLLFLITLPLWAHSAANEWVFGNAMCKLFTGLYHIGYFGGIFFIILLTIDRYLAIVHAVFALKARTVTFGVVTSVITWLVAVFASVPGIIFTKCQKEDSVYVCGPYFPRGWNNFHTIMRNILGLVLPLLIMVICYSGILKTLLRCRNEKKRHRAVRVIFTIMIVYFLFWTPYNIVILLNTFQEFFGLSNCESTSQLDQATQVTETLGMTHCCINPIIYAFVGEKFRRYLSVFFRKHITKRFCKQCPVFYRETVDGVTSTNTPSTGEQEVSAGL
Experimental: Compounds of the invention were subjected to various representative biological tests. […] MCP-1 Receptor Binding Assay in THP-1 Cells
Human monocytic cell line THP-1 cells were obtained from American Type Culture Collection (Manassas, Va., USA). […] The cell density was maintained […].
1 μM cold MCP-1 was used for nonspecific binding.

IC50 | Structure (SMILES)
0.92 µM | O=C(CNC(=O)c1cccc(C(F)(F)F)c1)NC1CN(C2CCC(c3c[nH]c4ccccc34)CC2)C1 (stereo not shown) [Example 50, N-({1-[4-(1H-Indol-3-yl)-cyclohexyl]-azetidin-3-ylcarbamoyl}-methyl)-3-trifluoromethyl-benzamide]
0.97 µM | O=C(CNC(=O)c1cccc(C(F)(F)F)c1)NC1CN(C2CCC(c3cccnc3O)CC2)C1 (stereo not shown) [Example 10, N-({1-[4-(2-Hydroxy-pyridin-3-yl)-cyclohexyl]-azetidin-3-ylcarbamoyl}-methyl)-3-trifluoromethyl-benzamide]
0.15 µM | O=C(CNC(=O)c1cccc(C(F)(F)F)c1)NC1CN(C2CCC(c3ccc(=O)n(CC(F)(F)F)c3)CC2)C1 (single isomer, unassigned) [Example 42a, N-[(1-{4-[6-Oxo-1-(2,2,2-trifluoro-ethyl)-1,6-dihydro-pyridin-3-yl]-cyclohexyl}-azetidin-3-ylcarbamoyl)-methyl]-3-trifluoromethyl-benzamide]
0.28 µM | CS(=O)(=O)N(c1ccc(C2CCC(N3CC(NC(=O)CNC(=O)c4cccc(C(F)(F)F)c4)C3)CC2)nc1)S(C)(=O)=O (stereo not shown) [Example 14, N-({1-[4-(5-bis-{Methanesulfonyl}-amino-pyridin-2-yl)-cyclohexyl]-azetidin-3-ylcarbamoyl}-methyl)-3-trifluoromethyl-benzamide]
5.8 µM | Cn1cc(C2CCC(N3CC(NC(=O)CNC(=O)c4cccc(C(F)(F)F)c4)C3)CC2)c(=O)[nH]c1=O (stereo not shown) [Example 56, N-({1-[4-(1-Methyl-2,4-dioxo-1,2,3,4-tetrahydro-pyrimidin-5-yl)-cyclohexyl]-azetidin-3-ylcarbamoyl}-methyl)-3-trifluoromethyl-benzamide]
0.39 µM | O=C(CNC(=O)c1cccc(C(F)(F)F)c1)NC1CN(C2CCC(c3nsc(Cl)n3)CC2)C1 (mixture of isomers) [Example 62, N-({1-[4-(5-Chloro-[1,2,4]thiadiazol-3-yl)-cyclohexyl]-azetidin-3-ylcarbamoyl}-methyl)-3-trifluoromethyl-benzamide]
0.072 µM | CNc1cccc(C2CCC(N3CC(NC(=O)CNC(=O)c4cccc(C(F)(F)F)c4)C3)CC2)n1 (single isomer, unassigned) [Example 23a, N-({1-[4-(6-Methylamino-pyridin-2-yl)-cyclohexyl]-azetidin-3-ylcarbamoyl}-methyl)-3-trifluoromethyl-benzamide]
0.55 µM | Cn1ccc(C2CCC(N3CC(NC(=O)CNC(=O)c4cccc(C(F)(F)F)c4)C3)CC2)cc1=O (single isomer, unassigned) [Example 46a, N-({1-[4-(1-Methyl-2-oxo-1,2-dihydro-pyridin-4-yl)-cyclohexyl]-azetidin-3-ylcarbamoyl}-methyl)-3-trifluoromethyl-benzamide]
0.037 µM | CCn1cc(C2CCC(N3CC(NC(=O)CNC(=O)c4cccc(C(F)(F)F)c4)C3)CC2)ccc1=O (stereo not shown) [Example 39a, N-({1-[4-(1-Ethyl-6-oxo-1,6-dihydro-pyridin-3-yl)-cyclohexyl]-azetidin-3-ylcarbamoyl}-methyl)-3-trifluoromethyl-benzamide]
0.013 µM | O=C(CNC(=O)c1cccc(C(F)(F)F)c1)NC1CN(C2CCC(c3ccc(O)cn3)CC2)C1 (stereo not shown) [Example 4, N-({1-[4-(5-Hydroxy-pyridin-2-yl)-cyclohexyl]-azetidin-3-ylcarbamoyl}-methyl)-3-trifluoromethyl-benzamide hemisuccinate salt]
0.085 µM | Nc1ccc(C2CCC(N3CC(NC(=O)CNC(=O)c4cccc(C(F)(F)F)c4)C3)CC2)nc1 (stereo not shown) [Example 21, N-({1-[4-(5-Amino-pyridin-2-yl)-cyclohexyl]-azetidin-3-ylcarbamoyl}-methyl)-3-trifluoromethyl-benzamide]
2.8 µM | O=C(CNC(=O)c1cccc(C(F)(F)F)c1)NC1CN(C2CCC(c3cnc(C(=O)O)s3)CC2)C1 (single isomer, unassigned) [Example 52a, 5-(4-{3-[2-(3-Trifluoromethyl-benzoylamino)-acetylamino]-azetidin-1-yl}-cyclohexyl)-thiazole-2-carboxylic acid]
0.21 µM | N#CNc1cccc(C2CCC(N3CC(NC(=O)CNC(=O)c4cccc(C(F)(F)F)c4)C3)CC2)n1 (stereo not shown) [Example 25, N-({1-[4-(6-Cyanoamino-pyridin-2-yl)-cyclohexyl]-azetidin-3-ylcarbamoyl}-methyl)-3-trifluoromethyl-benzamide]
0.34 µM | O=C(CNC(=O)c1cccc(C(F)(F)F)c1)NC1CN(C2CCC(c3c[nH]c(=O)s3)CC2)C1 (stereo not shown) [Example 54, N-({1-[4-(2-Oxo-2,3-dihydro-thiazol-5-yl)-cyclohexyl]-azetidin-3-ylcarbamoyl}-methyl)-3-trifluoromethyl-benzamide]
0.089 µM | Nc1cccc(C2CCC(N3CC(NC(=O)CNC(=O)c4ccc(F)c(C(F)(F)F)c4)C3)CC2)n1 (stereo not shown) [Example 28, N-({1-[4-(6-Amino-pyridin-2-yl)-cyclohexyl]-azetidin-3-ylcarbamoyl}-methyl)-4-fluoro-3-trifluoromethyl-benzamide]

Second part, the compound before the results:

Structure (SMILES) | IC50
CC(=O)Nc1ccc(C2CCC(N3CC(NC(=O)CNC(=O)c4cccc(C(F)(F)F)c4)C3)CC2)nc1 (stereo not shown) [Example 13, N-({1-[4-(5-Acetylamino-pyridin-2-yl)-cyclohexyl]-azetidin-3-ylcarbamoyl}-methyl)-3-trifluoromethyl-benzamide] | 0.09 µM
Nc1ccc(C2CCC(N3CC(NC(=O)CNC(=O)c4cccc(C(F)(F)F)c4)C3)CC2)cn1 (single isomer, unassigned) [Example 30a, N-({1-[4-(6-Amino-pyridin-3-yl)-cyclohexyl]-azetidin-3-ylcarbamoyl}-methyl)-3-trifluoromethyl-benzamide] | 0.189 µM
N#CCn1cc(C2CCC(N3CC(NC(=O)CNC(=O)c4cccc(C(F)(F)F)c4)C3)CC2)ccc1=O (stereo not shown) [Example 41, N-({1-[4-(1-Cyanomethyl-6-oxo-1,6-dihydro-pyridin-3-yl)-cyclohexyl]-azetidin-3-ylcarbamoyl}-methyl)-3-trifluoromethyl-benzamide] | 0.13 µM
O=C(CNC(=O)c1cccc(C(F)(F)F)c1)NC1CN(C2CCC(c3cccc(NC(=O)C(F)(F)F)n3)CC2)C1 (stereo not shown) [Example 24, N-[(1-{4-[6-(2,2,2-Trifluoro-acetylamino)-pyridin-2-yl]-cyclohexyl}-azetidin-3-ylcarbamoyl)-methyl]-3-trifluoromethyl-benzamide] | 0.06 µM
O=C(CNC(=O)c1cccc(C(F)(F)F)c1)NC1CN(C2CCC(c3cccc(=O)[nH]3)CC2)C1 (stereo not shown) [Example 47, N-({1-[4-(6-Oxo-1,6-dihydro-pyridin-2-yl)-cyclohexyl]-azetidin-3-ylcarbamoyl}-methyl)-3-trifluoromethyl-benzamide] | 0.18 µM
COc1ncccc1C1CCC(N2CC(NC(=O)CNC(=O)c3cccc(C(F)(F)F)c3)C2)CC1 (stereo not shown) [Example 2, N-({1-[4-(2-Methoxy-pyridin-3-yl)-cyclohexyl]-azetidin-3-ylcarbamoyl}-methyl)-3-trifluoromethyl-benzamide] | 0.21 µM
Nc1noc(N)c1C1CCC(N2CC(NC(=O)CNC(=O)c3cccc(C(F)(F)F)c3)C2)CC1 (stereo not shown) [Example 55, N-({1-[4-(3,5-Diimino-isoxazolidin-4-yl)-cyclohexyl]-azetidin-3-ylcarbamoyl}-methyl)-3-trifluoromethyl-benzamide] | 0.125 µM
O=C(CNC(=O)c1cccc(C(F)(F)F)c1)NC1CN(C2CCC(c3cnccc3O)CC2)C1 (stereo not shown) [Example 11, N-({1-[4-(4-Hydroxy-pyridin-3-yl)-cyclohexyl]-azetidin-3-ylcarbamoyl}-methyl)-3-trifluoromethyl-benzamide] | 0.46 µM
O=C(CNC(=O)c1cccc(C(F)(F)F)c1)NC1CN(C2CCC(c3noc(=O)[nH]3)CC2)C1 (stereo not shown) [Example 57, N-({1-[4-(5-Oxo-4,5-dihydro-[1,2,4]oxadiazol-3-yl)-cyclohexyl]-azetidin-3-ylcarbamoyl}-methyl)-3-trifluoromethyl-benzamide] | 1.1 µM
Cn1cc(C2CCC(N3CC(NC(=O)CNC(=O)c4cccc(C(F)(F)F)c4)C3)CC2)ccc1=O (single isomer, unassigned) [Example 38a, N-({1-[4-(1-Methyl-6-oxo-1,6-dihydro-pyridin-3-yl)-cyclohexyl]-azetidin-3-ylcarbamoyl}-methyl)-3-trifluoromethyl-benzamide] | 0.046 µM
CC(C)n1cc(C2CCC(N3CC(NC(=O)CNC(=O)c4cccc(C(F)(F)F)c4)C3)CC2)ccc1=O (single isomer, unassigned) [Example 40a, N-({1-[4-(1-Isopropyl-6-oxo-1,6-dihydro-pyridin-3-yl)-cyclohexyl]-azetidin-3-ylcarbamoyl}-methyl)-3-trifluoromethyl-benzamide] | 0.33 µM
O=C(CNC(=O)c1cccc(C(F)(F)F)c1)NC1CN(C2CCC(c3ccc(NC(=O)C(F)(F)F)cn3)CC2)C1 (stereo not shown) [Example 16, N-[(1-{4-[5-(2,2,2-Trifluoro-acetylamino)-pyridin-2-yl]-cyclohexyl}-azetidin-3-ylcarbamoyl)-methyl]-3-trifluoromethyl-benzamide] | 0.095 µM
Nc1cccc(C2CCC(N3CC(NC(=O)CNC(=O)c4cccc(C(F)(F)F)c4)C3)CC2)n1 (single isomer, unassigned) [Example 22a, N-({1-[4-(6-Amino-pyridin-2-yl)-cyclohexyl]-azetidin-3-ylcarbamoyl}-methyl)-3-trifluoromethyl-benzamide] | 0.025 µM
